42 compounds from patent US20150141411A1, “SUBSTITUTED 3,4-DIHYDRO-2H-PYRIDO[1,2-A]PYRAZINE-1,6-DIONE DERIVATIVES USEFUL FOR THE TREATMENT OF (INTER ALIA) ALZHEIMER'S DISEASE” (Janssen Pharmaceuticals, Inc., priority 2012, published 2015) can be followed below.

Counter-ions that a name gives are not always drawn.

One may read the melting point as the temperature of the solid-liquid transition. One may read the IC50 as the concentration that inhibits the measured activity by half. A low value points to higher potency.

Series [1] addresses T1, γ-secretase (Homo sapiens, UniProt P49768).
T1 construct: endogenous in cells; host or cells: SKNBE2 human neuroblastoma cells (carrying hAPP 695 wild type as substrate)
Kind of series: Screening for γ-secretase-modulating activity: Aβ42 in supernatant of SKNBE2 cells carrying hAPP 695 wild type (Alphalisa). It counts as cell-based. The settings on record: SKNBE2 human neuroblastoma cells carrying hAPP 695 wild type, overnight incubation, Aβ42 in cell supernatant. The protocol: (§1) Screening was carried out using SKNBE2 human neuroblastoma cells carrying the hAPP 695—wild type, grown in Dulbecco's Modified Eagle's Medium/Nutrient mixture F-12 (DMEM/NUT-mix F-12) (HAM) provided by Invitrogen (cat no. 10371-029) containing 5% Serum/Fe supplemented with 1% non-essential amino acids, 1-glutamine 2 mM, Hepes 15 mM, penicillin 50 U/ml (units/ml) en streptomycin 50 μg/ml. Cells were grown to near confluency.
(§2) The screening was performed using a modification of the assay as described in Citron et al (1997) Nature Medicine 3: 67. Briefly, cells were plated in a 384-well plate at 10^4 cells/well in Ultraculture (Lonza, BE12-725F) supplemented with 1% glutamine (Invitrogen, 25030-024), 1% non-essential amino acid (NEAA), penicillin 50 U/ml en streptomycin 50 μg/ml in the presence of test compound at different test concentrations. The cell/compound mixture was incubated overnight at 37° C., 5% CO2. The next day the media were assayed by two sandwich immuno-assays, for Aβ42 and Aβ total.
(§3) Aβtotal and Aβ42 concentrations were quantified in the cell supernatant using the Aphalisa technology (Perkin Elmer). Alphalisa is a sandwich assay using biotinylated antibody attached to streptavidin coated donorbeads and antibody conjugated to acceptor beads. In the presence of antigen, the beads come into close proximity. The excitation of the donor beads provokes the release of singlet oxygen molecules that trigger a cascade of energy transfer in the acceptor beads, resulting in light emission. To quantify the amount of Aβ42 in the cell supernatant, monoclonal antibody specific to the C-terminus of Aβ42 (JRF/cAβ42/26) was coupled to the receptor beads and biotinylated antibody specific to the N-terminus of Aβ (JRF/AβN/25) was used to react with the donor beads. To quantify the amount of Aβtotal in the cell supernatant, monoclonal antibody specific to the N-terminus of Aβ (JRF/AβN/25) was coupled to the receptor beads and biotinylated antibody specific to the mid region of Aβ (biotinylated 4G8) was used to react with the donor beads.
(§4) To obtain the values reported in Table 3, the data are calculated as percentage of the maximum amount of amyloid Beta 42 measured in the absence of the test compound. The sigmoidal dose response curves were analyzed using non-linear regression analysis with percentage of the control plotted against the log concentration of the compound. A 4-parameter equation was used to determine the IC50.

Series [2] deals with T1, γ-secretase. Kind of series: Screening for γ-secretase-modulating activity: Aβtotal in supernatant of SKNBE2 cells carrying hAPP 695 wild type (Alphalisa). The format is cell-based. Particulars: SKNBE2 human neuroblastoma cells carrying hAPP 695 wild type, overnight incubation, Aβtotal in cell supernatant. The protocol:
as §1, §2, §3, §4
On the technique in general: Alpha assays give light when donor and acceptor beads are brought close together.

Compound `Cc1cn(-c2ccc3n(c2=O)C[C@@H](C)N(CCc2cccc(Cl)c2Cl)C3=O)cn1` (as salt: HCl) [compound 231] showed a melting point of 218 °C. Consider `Cc1cn(-c2ccc3n(c2=O)C[C@@H](C)N(Cc2cccc(Cl)c2)C3=O)cn1` (as salt: HCl) [compound 24], for which the melting point worked out at 184.6 °C. Regarding `Cc1cn(-c2ccc3n(c2=O)C[C@@H](C)N(C(C)c2cccc(OC(F)(F)F)c2)C3=O)cn1` (single isomer, unassigned) (as salt: HCl) [compound 147], the melting point turned out to be 232.9 °C.

`Cc1cn(-c2ccc3n(c2=O)C[C@@H](C)N(Cc2cc(N4CCCCC4)cc(C(F)(F)F)c2)C3=O)cn1` (as salt: HCl) [compound 86] yielded a melting point of 185.3 °C.

`Cc1cn(-c2ccc3n(c2=O)C[C@@H](C)N(Cc2cc(N4CCC(C)CC4)ccc2Cl)C3=O)cn1` (as salt: HCl) [compound 80] returned a melting point of 235.1 °C. `Cc1cn(-c2ccc3n(c2=O)C[C@@H](C)N(Cc2cc(OC(C)C)nc(C(F)(F)F)c2)C3=O)cn1` (as salt: HCl) [compound 128]: the melting point was 116.9 °C.

Compound `Cc1cn(-c2ccc3n(c2=O)C[C@@H](C)N(Cc2cc(OC(C)C)c(Cl)cc2F)C3=O)cn1` (as salt: HCl) [compound 163] registered a melting point of 103.1 °C.

In the case of `Cc1cn(-c2ccc3n(c2=O)C[C@@H](C)N(Cc2cn(C)c4ccc(OC(F)(F)F)cc24)C3=O)cn1` (as salt: HCl) [compound 253], the melting point amounted to 190 °C. The compound `Cc1cn(-c2ccc3n(c2=O)C[C@@H](C)N(Cc2cc(F)cc(OC(F)(F)F)c2)C3=O)cn1` (as salt: HCl) [compound 139] returned a melting point of 195.9 °C.

Consider `CCC(c1cc(OC)cc(C(F)(F)F)c1)N1C(=O)c2ccc(-n3cnc(C)c3)c(=O)n2C[C@H]1C` (single isomer, unassigned) (as salt: HCl) [compound 141], for which the melting point was 146.2 °C.

As to `Cc1cn(-c2ccc3n(c2=O)C[C@@H](C)N(Cc2c[nH]c4ccc(Cl)cc24)C3=O)cn1` [compound 138], the IC50 at γ-secretase [1] was 40 nM; on γ-secretase [2], over 10000 nM.

As for `CCOc1cc(C(C)N2C(=O)c3ccc(-n4cnc(C)c4)c(=O)n3C[C@H]2C)cc(C(F)(F)F)c1` (single isomer, unassigned) [compound 144], the IC50 against γ-secretase [1] is 130 nM; on γ-secretase [2], over 10000 nM. On to `Cc1cn(-c2ccc3n(c2=O)C[C@@H](C)N(C(C)c2cc(CC4CC4)cc(C(F)(F)F)c2)C3=O)cn1` (single isomer, unassigned) [compound 135], for which the IC50 against γ-secretase [1] is 20 nM; at γ-secretase [2], over 10000 nM.

For `Cc1cn(-c2ccc3n(c2=O)C[C@@H](C)N(CCc2ccccc2)C3=O)cn1` [compound 176], the figures for the IC50 on γ-secretase [1] and against γ-secretase [2] were 1550 nM and over 10000 nM, respectively.

Turning to `Cc1cn(-c2ccc3n(c2=O)CCC(C)N(Cc2cc(C(F)(F)F)cc(C(F)(F)F)c2)C3=O)cn1` (centres unmarked) [compound 123], the IC50 against γ-secretase [1] is 190 nM; against γ-secretase [2], over 10000 nM. For the compound `Cc1cn(-c2ccc3n(c2=O)C[C@@H](C)N(Cc2cc(C(F)(F)F)ccc2Cl)C3=O)cn1` [compound 71], the IC50 against γ-secretase [1] was 280 nM; against γ-secretase [2], over 10000 nM. As to `Cc1cn(-c2ccc3n(c2=O)C[C@@H](C)N(Cc2cn(C)c4cc(F)c(C5CC5)cc24)C3=O)cn1` [compound 174], the IC50 on γ-secretase [1] was 10 nM; at γ-secretase [2], 5000 nM. For `Cc1cn(-c2ccc3n(c2=O)CCN(Cc2ccccc2)C3=O)cn1` [compound 19] the same measures were 6760 nM and over 10000 nM. For the compound `Cc1cn(-c2ccc3n(c2=O)C[C@@H](C)N(Cc2cn(C)c4c(F)cc(C(F)(F)F)cc24)C3=O)cn1` [compound 241], the IC50 on γ-secretase [1] turned out to be 6 nM; on γ-secretase [2], 4000 nM. Take `CCC(c1cc(OC)cc(C(F)(F)F)c1)N1C(=O)c2ccc(-n3cnc(C)c3)c(=O)n2C[C@H]1C` (single isomer, unassigned) [compound 142]: the IC50 against γ-secretase [1] was 210 nM; against γ-secretase [2] it was over 10000 nM. As to `Cc1cn(-c2ccc3n(c2=O)CC(C(C)O)N(Cc2cc(C(F)(F)F)cc(C(F)(F)F)c2)C3=O)cn1` (centres unmarked) [compound 167], the IC50 is 1200 nM on γ-secretase [1] and over 10000 nM against γ-secretase [2]. As to `Cc1cn(-c2ccc3n(c2=O)C[C@@H](C)N(Cc2cccc(Cl)c2)C3=O)cn1` [compound 24], the IC50 at γ-secretase [1] was 1100 nM; against γ-secretase [2] it was over 10000 nM. On to `Cc1cn(-c2ccc3n(c2=O)C[C@@H](C)N(C(C)c2cc(C(F)(F)F)cc(C(F)(F)F)c2)C3=O)cn1` (mixture of isomers) [compound 154], for which the values for the IC50 at γ-secretase [1] and at γ-secretase [2] were 50 nM and over 10000 nM, respectively. In the same order, the values of `COc1cccc(CN2CCn3c(ccc(-n4cnc(C)c4)c3=O)C2=O)c1` [compound 66] are 3890 nM and over 10000 nM. For `O=C1c2ccc(-n3ccnc3)c(=O)n2CCN1Cc1cccc(-c2ccccc2)c1` [compound 109], the IC50 against γ-secretase [1] was 2090 nM; on γ-secretase [2], over 10000 nM.

With `Cc1cn(-c2ccc3n(c2=O)CC(C)N(C(C)c2cn(C(C)C)c4cc(F)c(Cl)cc24)C3=O)cn1` (single isomer, unassigned) [compound 193], the values for the IC50 on γ-secretase [1] and against γ-secretase [2] were 200 nM and over 10000 nM, respectively.

In the case of `CNC[C@@H]1Cn2c(ccc(-n3cnc(C)c3)c2=O)C(=O)N1Cc1cc(C(F)(F)F)cc(C(F)(F)F)c1` [compound 49], the IC50 on γ-secretase [1] is 3390 nM; on γ-secretase [2], over 10000 nM. For the compound `Cc1nccn1-c1ccc2n(c1=O)CCN(Cc1cccc(-c3ccccc3)c1)C2=O` [compound 108], the values for the IC50 at γ-secretase [1] and against γ-secretase [2] were 4790 nM and over 10000 nM, respectively. For the compound `Cc1ccc2c(c1)c(CN1C(=O)c3ccc(-n4cnc(C)c4)c(=O)n3C[C@H]1C)cn2CC(F)(F)F` [compound 262], the 50% inhibitory concentration (IC50) against γ-secretase [1] was 20 nM; against γ-secretase [2] it was over 10000 nM.

On to `Cc1cncn1-c1ccc2n(c1=O)CCCN(Cc1ccc(Cl)c(Cl)c1)C2=O` [compound 122], for which the IC50 on γ-secretase [1] and against γ-secretase [2] was over 10000 nM each time. For `Cc1cn(-c2ccc3n(c2=O)C[C@@H](C)N(Cc2cn(C)c4ccc(C5CC5)cc24)C3=O)cn1` [compound 246], the IC50 at γ-secretase [1] worked out at 20 nM; on γ-secretase [2], 7000 nM. `C[C@@H]1Cn2c(ccc(-n3ccnc3)c2=O)C(=O)N1Cc1cc(C(F)(F)F)cc(C(F)(F)F)c1` [compound 173]: the IC50 against γ-secretase [1] is 1260 nM; on γ-secretase [2] it was over 10000 nM. For `Cc1cn(-c2ccc3n(c2=O)CCN(Cc2cccc(Cl)c2F)C3=O)cn1` [compound 39] the same measures were 950 nM and over 10000 nM. As to `COc1cc2c(cc1Cl)c(C(C)N1C(=O)c3ccc(-n4cnc(C)c4)c(=O)n3C[C@H]1C)cn2C` (single isomer, unassigned) [compound 256], the IC50 is 40 nM against γ-secretase [1] and 4000 nM at γ-secretase [2].

In the case of `Cc1cn(-c2ccc3n(c2=O)C[C@@H](C)N(Cc2cc(F)cc(OC(F)(F)F)c2)C3=O)cn1` [compound 139], the IC50 was 950 nM on γ-secretase [1] and over 10000 nM against γ-secretase [2]. Take `Cc1cn(-c2ccc3n(c2=O)CCN(c2ccc(F)cc2C)C3=O)cn1` [compound 41]: the IC50 at γ-secretase [1] and at γ-secretase [2] was over 10000 nM in each case. With `Cc1cn(-c2ccc3n(c2=O)C[C@@H](C)N(Cc2c[nH]c4ccc(OC(F)(F)F)cc24)C3=O)cn1` [compound 252], the IC50 was determined as 10 nM against γ-secretase [1] and 5000 nM at γ-secretase [2]. Turning to `Cc1cn(-c2ccc3n(c2=O)CC(C)N(Cc2c(C)n(C)c4ccc(C(F)(F)F)cc24)C3=O)cn1` (centres unmarked) [compound 181], the IC50 was 10 nM at γ-secretase [1] and 4570 nM at γ-secretase [2]. As to `Cc1cn(-c2ccc3n(c2=O)C[C@@H](C)N(Cc2cn(C)c4cc(C(F)(F)F)c(F)cc24)C3=O)cn1` [compound 258], the figures for the IC50 against γ-secretase [1] and against γ-secretase [2] were 20 nM and 9000 nM, respectively. For `CCn1cc(C(C)N2C(=O)c3ccc(-n4cnc(C)c4)c(=O)n3CC2C)c2cc(Cl)ccc21` (single isomer, unassigned) [compound 243] the same measures were 10 nM and 2000 nM. As for `CCn1cc(CN2C(=O)c3ccc(-n4cnc(C)c4)c(=O)n3C[C@H]2C)c2cc(C3CC3)ccc21` [compound 247], the IC50 is 10 nM on γ-secretase [1] and 6000 nM on γ-secretase [2]. For `Cc1cn(-c2ccc3n(c2=O)C[C@@H](C)N(C(C)c2cccc(OC(F)(F)F)c2)C3=O)cn1` (single isomer, unassigned) [compound 147] the same measures were 330 nM and over 10000 nM.
